Results on two compounds are retold here after ChEMBL document CHEMBL1165895, “A novel series of cytotoxic iridoid glucosides derived from aucubin: design, synthesis and structure-activity relationships” (Eur J Med Chem, 2010).

Assay [1] in a line: Cytotoxicity against human KB3-1 cells after 96 hrs by microculture tetrazolium assay. In kind it is functional, cell-based. As to conditions: KB 3-1, 96 h.
Assay [2] concerns L1210. The experiment in a line: Cell cycle arrest in mouse L1210 cells assessed as accumulation at G1 phase at 10 uM after 21 hrs using propidium iodide staining by flow cytometry. In kind it is functional.
In assay [3] the test system is L1210. Briefly: Cell cycle arrest in mouse L1210 cells assessed as accumulation at G2M phase at 10 uM after 21 hrs using propidium iodide staining by flow cytometry. In kind it is functional. A general note: Flow cytometry measures light scatter and fluorescence of single cells or particles in a stream.
Assay [4] has as its system L1210. The experiment in a line: Cell cycle arrest in mouse L1210 cells assessed as accumulation at S phase at 10 uM after 21 hrs using propidium iodide staining by flow cytometry. The format is functional.
Assay [5] relates to L1210. Briefly: Cytotoxicity against mouse L1210 cells after 48 hrs by microculture tetrazolium assay. In kind it is functional, cell-based. The following applies: L1210, 48 h.

For the compound `CC(C)(C)C(=O)OCC1=C[C@@H](OC(=O)C(C)(C)C)C2=CC(=O)O[C@@H](O[C@@H]3O[C@H](COC(=O)C(C)(C)C)[C@@H](OC(=O)C(C)(C)C)[C@H](OC(=O)C(C)(C)C)[C@H]3OC(=O)C(C)(C)C)[C@H]12`, the concentration for half-maximal inhibition (IC50) – broadly, the midpoint of a concentration-inhibition curve – in assay [1] was 0.42 µM; in assay [5], 4 µM. The values for the Activity in assay [2], in assay [3] and in assay [4] were 36%, 45% and 19%, respectively.

As for `CC1=C[C@@H](OC(=O)C(C)(C)C)C2=CC(=O)O[C@@H](O[C@@H]3O[C@H](COC(=O)C(C)(C)C)[C@@H](OC(=O)C(C)(C)C)[C@H](OC(=O)C(C)(C)C)[C@H]3OC(=O)C(C)(C)C)[C@H]12`, the values for the IC50 in assay [1] and in assay [5] were 7.2 µM and 24.8 µM, respectively.
